Some test systems named below: ACHN renal; A498 renal; HCT-116 colon; SK-OV-3 ovarian; RPMI-8226 leukemia; MDA-MB-231 breast; MDA-N; U251 CNS; PC-3 prostate; SW-620 colon; NCI-H226 lung; A549 NSCLC.
Holding throughout (assay): NCI anticancer screen, dose series, 48 h

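1) Cells in 96-well plates. 2) Compound, 48 h, 5 concentrations. 3) Linear interpolation between surrounding doses. 4) Unreached endpoint = highest concentration. TGI: total growth inhibition.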

With `O=C(/C=C/c1ccsc1)c1ccco1`, the TGI in the assay on ACHN renal was determined as 22.8 µM; in the assay on A498 renal it was 17.8 µM; in the assay with HCT-116 colon, 16.6 µM; with SK-OV-3 ovarian, 42.3 µM; in the assay with RPMI-8226 leukemia, 16.1 µM; with MDA-MB-231 breast, 26.9 µM. The TGI in the assay on MDA-N was 25.2 µM; with U251 CNS it was 20.3 µM; with PC-3 prostate, 28.5 µM; in the assay with SW-620 colon it was 22 µM; with NCI-H226 lung, over 63.6 µM; in the assay on A549 NSCLC, 11.7 µM.
As to `c1ccc(C2=Nc3nc4ccccc4n3C(c3ccccc3)C2)cc1` (stereo not drawn), the TGI in the assay on ACHN renal, in the assay on A498 renal, in the assay on HCT-116 colon, in the assay with SK-OV-3 ovarian, with RPMI-8226 leukemia and with MDA-MB-231 breast was over 100 µM in each case. Further, the TGI in the assay on MDA-N, in the assay with U251 CNS, with PC-3 prostate, in the assay with SW-620 colon, in the assay on NCI-H226 lung and in the assay on A549 NSCLC was over 100 µM throughout.
Turning to `Clc1cc2c(c(CSC3=NCN(CC4CC4)CN3)c1)OCOC2`, the TGI in the assay with ACHN renal turned out to be 45.6 µM; in the assay on A498 renal, 58.2 µM; in the assay on HCT-116 colon it was 42.8 µM; in the assay on SK-OV-3 ovarian it was 67.1 µM; in the assay on RPMI-8226 leukemia it was 38.2 µM; in the assay on MDA-MB-231 breast, 48 µM. For the same compound, the TGI came to 38.6 µM in the assay on MDA-N; 53.1 µM with U251 CNS; 65.8 µM with PC-3 prostate; 65.1 µM in the assay on SW-620 colon; 48.9 µM with NCI-H226 lung; 77.6 µM in the assay with A549 NSCLC.
Turning to `O=c1[nH]nc(-c2ccccc2)n1/N=C/c1c[nH]c2ccccc12`, the TGI in the assay on ACHN renal, with A498 renal, with HCT-116 colon, with SK-OV-3 ovarian, with RPMI-8226 leukemia and in the assay with MDA-MB-231 breast was over 100 µM each time. For the same compound, the TGI in the assay on MDA-N, in the assay on U251 CNS, in the assay on PC-3 prostate, in the assay on SW-620 colon, with NCI-H226 lung and with A549 NSCLC was over 100 µM in each case.
